Here are results for 20 molecules from patent publication US11919901B2 (Syndax Pharmaceuticals, Inc., priority 2021, dated 2024).

The assay concerns MV4-11 cells. Put plainly: Cell proliferation assay MV4;11 (CellTiter-Glo, 72 hours). The class given is cell-based. To be noted: Homo sapiens; MV4;11 leukemia cell line, 72 hours; read-out: MV4; 11 IC50. The protocol:
Compounds were evaluated for its capacity to inhibit the proliferation of the MLLr leukemia cell line MV4-11 that harbors an MLL1-AF4 fusion protein. MV4-11 cells were cultured for 72 hours with limiting dilutions of compounds and viability was measured using CellTiter-Glo.
Compounds were dissolved to obtain as 10 mM solution in DMSO. The stock was diluted 1:5 to the top concentration of 2 mM in 100% DMSO. For IC50 determination, serial 1:3.16 dilutions were prepared in 100% DMSO by diluting 20 μL into 43.5 μL of DMSO for 8 concentrations. Each prepared DMSO solution were further diluted 1:500 in the cell culture media to obtain the 2× dosing solutions. The final concentrations of tested compounds in the cell culture media ranged from 0.632 nM to 2000 nM.
MV4-11 cells were cultured in IMDM with 10% FBS and 1× Penicillin-Streptomycin at 5% CO2 and 37° C. A cell suspension was prepared containing 15,000 cells/ml in the culture medium and 100 μL of this suspension was added per well to a 96-well cell culture plate. Then, 100 μL of 2× dosing media containing test compounds were added bringing the total volume to 200 μL. These cells were cultured for 72 hours at 37° C. and 5% CO2 in a humidified incubator.
After 72 hours, the cultured cells were mixed and 100p L was transferred to a 96-well black plate. Cell Titer Glo (100 μl) was then added to this plate. The plate was mixed with shaking for 15 mins at RT, the luminescence was then measured using Tecan Spark 20M spectrophotometer. Cell Viability (%) was determined by RLU of test/RLU average vehicle control*100 and % max inhibition was determined by 100−(% cell viability remaining at the top concentration of compound).
(Cellular ATP, detected with luciferase, serves as a proxy for viable cell number.)

Turning to `CCN(C(=O)c1cc(F)ccc1Oc1cncnc1N1CC2(CCN(C[C@@H]3CC[C@@H](NS(=O)(=O)C4CC4)CO3)CC2)C1)C(C)C` [Example 4, 2-((4-(7-(((2S,5R)-5-(Cyclopropanesulfonamido)tetrahydro-2H-pyran-2-yl)methyl)-2,7-diazaspiro[3.5]nonan-2-yl)pyrimidin-5-yl)oxy)-N-ethyl-5-fluoro-N-isopropylbenzamide], the IC50 is under 100 nM.

In the case of `CCN(C(=O)c1cc(F)ccc1Oc1cncnc1N1CC2(CCN(C[C@@H]3CC[C@@H](NS(=O)(=O)C4COC4)CO3)CC2)C1)C(C)C` [Example 5, N-Ethyl-5-fluoro-N-isopropyl-2-((4-(7-(((2S,5R)-5-(oxetane-3-sulfonamido)tetrahydro-2H-pyran-2-yl)methyl)-2,7-diazaspiro[3.5]nonan-2-yl)pyrimidin-5-yl)oxy)benzamide], the IC50 was under 100 nM.

In the case of `CCN(C(=O)c1cc(F)ccc1Oc1cncnc1N1CC2(CCN(C[C@@H]3CC[C@@H](NS(=O)(=O)C4CCC4)CO3)CC2)C1)C(C)C` [Example 6, 2-((4-(7-(((2S,5R)-5-(Cyclobutanesulfonamido)tetrahydro-2H-pyran-2-yl)methyl)-2,7-diazaspiro[3.5]nonan-2-yl)pyrimidin-5-yl)oxy)-N-ethyl-5-fluoro-N-isopropylbenzamide], the IC50 was under 100 nM.

Consider `CCN(C(=O)c1cc(F)ccc1Oc1cncnc1N1CC2(CCN(C[C@@H]3CC[C@@H](NS(=O)(=O)CC4CC4)CO3)CC2)C1)C(C)C` [Example 7, 2-((4-(7-(((2S,5R)-5-((Cyclopropylmethyl)sulfonamido)tetrahydro-2H-pyran-2-yl)methyl)-2,7-diazaspiro[3.5]nonan-2-yl)pyrimidin-5-yl)oxy)-N-ethyl-5-fluoro-N-isopropylbenzamide], for which the IC50 is under 100 nM.

In the case of `CCN(C(=O)c1cc(F)ccc1Oc1cncnc1N1CC2(CCN(C[C@@H]3CC[C@@H](NS(=O)(=O)CCOC)CO3)CC2)C1)C(C)C` [Example 8, N-Ethyl-5-fluoro-N-isopropyl-2-((4-(7-(((2S,5R)-5-((2-methoxyethyl)sulfonamido)tetrahydro-2H-pyran-2-yl)methyl)-2,7-diazaspiro[3.5]nonan-2-yl)pyrimidin-5-yl)oxy)benzamide], the IC50 is under 100 nM.

As to `CCCS(=O)(=O)N[C@@H]1CC[C@@H](CN2CCC3(CC2)CN(c2ncncc2Oc2ccc(F)cc2C(=O)N(CC)C(C)C)C3)OC1` [Example 9, N-Ethyl-5-fluoro-N-isopropyl-2-((4-(7-(((2S,5R)-5-(propylsulfonamido)tetrahydro-2H-pyran-2-yl)methyl)-2,7-diazaspiro[3.5]nonan-2-yl)pyrimidin-5-yl)oxy)benzamide], the IC50 was under 100 nM.

`CCN(C(=O)c1cc(F)ccc1Oc1cncnc1N1CC2(CCN(C[C@@H]3CC[C@@H](NC(=O)OC(C)(C)C)CO3)CC2)C1)C(C)C` [Example 11, tert-Butyl ((3R,6S)-6-((2-(5-(2-(ethyl(isopropyl)carbamoyl)-4-fluorophenoxy)pyrimidin-4-yl)-2,7-diazaspiro[3.5]nonan-7-yl)methyl)tetrahydro-2H-pyran-3-yl)carbamate]: the IC50 is under 100 nM.

On to `CC(C)N(C(=O)c1cc(F)ccc1Oc1cncnc1N1CC2(CCN(C[C@@H]3CC[C@@H](NS(C)(=O)=O)CO3)CC2)C1)C(C)C` [Example 12, 5-Fluoro-N,N-diisopropyl-2-((4-(7-(((2S,5R)-5-(methylsulfonamido)tetrahydro-2H-pyran-2-yl)methyl)-2,7-diazaspiro[3.5]nonan-2-yl)pyrimidin-5-yl)oxy)benzamide], for which the IC50 was under 100 nM.

Take `CCS(=O)(=O)N[C@@H]1CC[C@@H](CN2CCC3(CC2)CN(c2ncncc2Oc2ccc(F)cc2C(=O)N(C(C)C)C(C)C)C3)OC1` [Example 13, 2-((4-(7-(((2S,5R)-5-(Ethylsulfonamido)tetrahydro-2H-pyran-2-yl)methyl)-2,7-diazaspiro[3.5]nonan-2-yl)pyrimidin-5-yl)oxy)-5-fluoro-N,N-diisopropylbenzamide]: the IC50 is under 100 nM.

Regarding `CC(C)N(C(=O)c1cc(F)ccc1Oc1cncnc1N1CC2(CCN(C[C@@H]3CC[C@@H](NS(=O)(=O)C(C)C)CO3)CC2)C1)C(C)C` [Example 14, 5-Fluoro-N,N-diisopropyl-2-((4-(7-(((2S,5R)-5-((1-methylethyl)sulfonamido)tetrahydro-2H-pyran-2-yl)methyl)-2,7-diazaspiro[3.5]nonan-2-yl)pyrimidin-5-yl)oxy)benzamide], the IC50 was under 100 nM.

With `CC(C)N(C(=O)c1cc(F)ccc1Oc1cncnc1N1CC2(CCN(C[C@@H]3CC[C@@H](NS(=O)(=O)C4CC4)CO3)CC2)C1)C(C)C` [Example 15, 2-((4-(7-(((2S,5R)-5-(Cyclopropanesulfonamido)tetrahydro-2H-pyran-2-yl)methyl)-2,7-diazaspiro[3.5]nonan-2-yl)pyrimidin-5-yl)oxy)-5-fluoro-N,N-diisopropylbenzamide], the IC50 was under 100 nM.

As to `CC(C)N(C(=O)c1cc(F)ccc1Oc1cncnc1N1CC2(CCN(C[C@@H]3CC[C@@H](NS(=O)(=O)C4COC4)CO3)CC2)C1)C(C)C` [Example 16, 5-Fluoro-N,N-diisopropyl-2-((4-(7-(((2S,5R)-5-(oxetane-3-sulfonamido)tetrahydro-2H-pyran-2-yl)methyl)-2,7-diazaspiro[3.5]nonan-2-yl)pyrimidin-5-yl)oxy)benzamide], the IC50 is under 100 nM.

Turning to `CC(C)N(C(=O)c1cc(F)ccc1Oc1cncnc1N1CC2(CCN(C[C@@H]3CC[C@@H](NC(=O)OC(C)(C)C)CO3)CC2)C1)C1CC1` [Example 17, tert-Butyl ((3R,6S)-6-((2-(5-(2-(cyclopropyl(isopropyl)carbamoyl)-4-fluorophenoxy)pyrimidin-4-yl)-2,7-diazaspiro[3.5]nonan-7-yl)methyl)tetrahydro-2H-pyran-3-yl)carbamate], the IC50 is under 100 nM.

For `CCS(=O)(=O)N[C@@H]1CC[C@@H](CN2CCC3(CC2)CN(c2ncncc2Oc2ccc(F)cc2C(=O)N(C(C)C)C2CC2)C3)OC1` [Example 19, N-Cyclopropyl-2-((4-(7-(((2S,5R)-5-(ethylsulfonamido)tetrahydro-2H-pyran-2-yl)methyl)-2,7-diazaspiro[3.5]nonan-2-yl)pyrimidin-5-yl)oxy)-5-fluoro-N-isopropylbenzamide], the IC50 was under 100 nM.

Regarding `CC(C)N(C(=O)c1cc(F)ccc1Oc1cncnc1N1CC2(CCN(C[C@@H]3CC[C@@H](NS(=O)(=O)C(C)C)CO3)CC2)C1)C1CC1` [Example 20, N-Cyclopropyl-5-fluoro-N-isopropyl-2-((4-(7-(((2S,5R)-5-((1-methylethyl)sulfonamido)tetrahydro-2H-pyran-2-yl)methyl)-2,7-diazaspiro[3.5]nonan-2-yl)pyrimidin-5-yl)oxy)benzamide], the IC50 is under 100 nM.

As for `CC(C)N(C(=O)c1cc(F)ccc1Oc1cncnc1N1CC2(CCN(C[C@@H]3CC[C@@H](NS(=O)(=O)C4CC4)CO3)CC2)C1)C1CC1` [Example 21, 2-((4-(7-(((2S,5R)-5-(Cyclopropanesulfonamido)tetrahydro-2H-pyran-2-yl)methyl)-2,7-diazaspiro[3.5]nonan-2-yl)pyrimidin-5-yl)oxy)-N-cyclopropyl-5-fluoro-N-isopropylbenzamide], the IC50 was under 100 nM.

Consider `CC(C)N(C(=O)c1cc(F)ccc1Oc1cncnc1N1CC2(CCN(C[C@@H]3CC[C@@H](NS(=O)(=O)C4COC4)CO3)CC2)C1)C1CC1` [Example 22, N-Cyclopropyl-5-fluoro-N-isopropyl-2-((4-(7-(((2S,5R)-5-(oxetane-3-sulfonamido)tetrahydro-2H-pyran-2-yl)methyl)-2,7-diazaspiro[3.5]nonan-2-yl)pyrimidin-5-yl)oxy)benzamide], for which the IC50 lay within 100 to 1000 nM.

As for `C[C@@H]1COC[C@H](C)N1C(=O)c1cc(F)ccc1Oc1cncnc1N1CC2(CCN(C[C@@H]3CC[C@@H](NS(C)(=O)=O)CO3)CC2)C1` [Example 23, N-((3R,6S)-6-((2-(5-(2-((3S,5R)-3,5-Dimethylmorpholine-4-carbonyl)-4-fluorophenoxy)pyrimidin-4-yl)-2,7-diazaspiro[3.5]nonan-7-yl)methyl)tetrahydro-2H-pyran-3-yl)methanesulfonamide], the IC50 is 100 to 1000 nM.

With `CCS(=O)(=O)N[C@@H]1CC[C@@H](CN2CCC3(CC2)CN(c2ncncc2Oc2ccc(F)cc2C(=O)N2[C@H](C)COC[C@@H]2C)C3)OC1` [Example 24, N-((3R,6S)-6-((2-(5-(2-((3S,5R)-3,5-dimethylmorpholine-4-carbonyl)-4-fluorophenoxy)pyrimidin-4-yl)-2,7-diazaspiro[3.5]nonan-7-yl)methyl)tetrahydro-2H-pyran-3-yl)ethanesulfonamide], the IC50 was under 100 nM.

As for `CC(C)S(=O)(=O)N[C@@H]1CC[C@@H](CN2CCC3(CC2)CN(c2ncncc2Oc2ccc(F)cc2C(=O)N2[C@H](C)COC[C@@H]2C)C3)OC1` [Example 25, N-((3R,6S)-6-((2-(5-(2-((3S,5R)-3,5-Dimethylmorpholine-4-carbonyl)-4-fluorophenoxy)pyrimidin-4-yl)-2,7-diazaspiro[3.5]nonan-7-yl)methyl)tetrahydro-2H-pyran-3-yl)propane-2-sulfonamide], the IC50 is under 100 nM.
